One data set concerns the target protein kinase C δ (Homo sapiens, UniProt Q05655). The data set can be described thus: protein kinase C δ assay. The data set is classed as biochemical. The following applies: 15 μM ATP. The protocol: (§1) Kinases activities were assayed in Buffer A or C (unless otherwise stated), at 30° C., at a final ATP concentration of 15 μM. Blank values were subtracted and activities calculated as pmoles of phosphate incorporated for a 10 min. incubation (usually expressed in % of the maximal activity, i.e. without inhibitors). Controls were performed with appropriate dilutions of Me2SO. In some cases phosphorylation of the substrate was assessed by autoradiography after SDS-PAGE. IC50 values were estimated from the dose-response curves. • CDK1/cyclin B was extracted in homogenisation buffer from M phase starfish (Marthasterias glacialis) oocytes and purified by affinity chromatography on p9^CKShs1-Sepharose beads, from which it was eluted by free p9^CKShs1 as described. The kinase activity was assayed in buffer C, with 1 mg histone H1/ml, in the presence of 15 μM [γ-^32P] ATP (3,000 Ci/mmol; 1 mCi/ml) in a final volume of 30 μl. After 10 min. incubation at 30° C., 25 μl aliquots of supernatant were spotted onto 2.5×3 cm pieces of Whatman P81 phosphocellulose paper, and, 20 sec. later, the filters were washed five times (for at least 5 min. each time) in a solution of 10 ml phosphoric acid/liter of water. The wet filters were counted in the presence of 1 ml ACS (Amersham) scintillation fluid. • GSK-3β was either purified from rabbit muscle or expressed in and purified from insect Sf9 cells. […]

The target of another data set is protein kinase C ζ (Homo sapiens, UniProt Q05513). The data set can be described thus: protein kinase C ζ assay. It counts as biochemical. The following applies: 15 μM ATP. The protocol:
as §1

The subject of data set [1] is HT29-18-C1 cells. The data set can be described thus: Trypan blue dye exclusion, HT29-18-C1. It counts as cell-based, human. The protocol: HT29-18-C1 cells were synchronised in G1 by serum deprivation. 5% FCS was added at time 0 and cells were simultaneously treated (o) or not (o) exposed to 10 μM HD. During 24 h and thereafter cultured in 5% FCS-containing medium. Cell number was determined every 12 h for a 72 h period using a hemocytometer. The kinetics of growth inhibition are given on FIG. 9A. […] Serum-treated cells (time 0) were exposed to various HD concentrations and counted after 24 h. The results are given on FIG. 9B. The number of non-serum stimulated cells ( ? ) is indicated for comparison. […] Trypan blue dye exclusion indicated little toxicity associated with 10 and 80 μM HD at 24 h (>95% and 90% viability, respectively). This antiproliferative effect of HD appears to be reversible. In fact, cells slowly began to proliferate again after 72 h culture.

In a further data set the test system is lung, H460. The data set can be described thus: Human cancer cell line H460 proliferation. It counts as cell-based. The following applies: NCI-H460.
The next data set addresses CDK5/p35 (Rattus norvegicus, UniProt Q03114). The data set can be described thus: In vitro Pak1 phosphorylation by immunoprecipitated CDK5/p35. The data set is classed as biochemical. The following applies: CDK5/p35 immunoprecipitated from P02 rat cortices; read-out: IC50 CDK5/p35 towards GST-Pak1K299.
In the next data set the target is c-abl tyrosine kinase (Abelson murine leukemia virus, UniProt P00521). The data set can be described thus: c-abl tyrosine kinase assay. It counts as biochemical. The following applies: 15 μM ATP. The protocol: as §1
The subject of data set [2] is 60 human tumor cell lines. The data set can be described thus: NCI disease-oriented in vitro screen. It counts as cell-based. The following applies: 48 hr exposure, 0.01–100 μM, read-out: average IC50 over 60 human tumor cell lines. An excerpt:
A sulforhodaminine B protein assay was used to estimate the cytotoxicity.

A further data set deals with melanoma, SK-MEL-5. The data set can be described thus: Human cancer cell line SK-MEL-5 proliferation. The data set is classed as cell-based.
The target in the next data set is ASK-γ (plant GSK-3) (Arabidopsis thaliana, UniProt P43289). The data set can be described thus: ASK-γ kinase assay. The data set is classed as biochemical. The protocol:
as §1

For data set [3], the system named is HT29-18-C1 cells. The data set can be described thus: HT29-18-C1 growth inhibition (cell counts). It counts as cell-based, human. Here is the method:
Cell culture and treatments. HT29-18-C1, a subclone of the human colon adenocarcinoma cell line HT29, was cultured in Dulbecco's modified Eagle's medium (Gibco-BRL) supplemented with 10% FCS, 2 mM L-glutamine (Eurobio) and […] gentamycin (Gibco-BRL) at 37° C., 10% CO2. Cells were synchronized by serum deprivation for 48 h. They were then released from growth arrest by the addition of 5% fetal calf serum (FCS). HD, prepared in DMSO, was added immediately to the medium, for 24 h and at final concentrations ranging from 0 to 80 μM. In some experiments HD was added 22 h after serum addition for an additional 24 h. In other experiments HD was added to unsynchronised cells. Cells were then washed and cultured in 5% FCS medium and counted or analysed by FACS at different times.
Cell counts and flow cytometric cell cycle analysis. Cell were counted with a hemocytometer. Cell cycle distribution was analysed by flow cytometry. The adherent cells (1.10^6) were trypsinised and fixed in cold 70% ethanol for 4 h. […] The stained cells were analysed on a FACScan cytofluorimeter using the cellFit Software program (Becton Dickinson Immunocytometry Systems).
HT29-18-C1 cells were synchronised in G1 by serum deprivation. […] Cell number was determined every 12 h for a 72 h period using a hemocytometer. […] Serum-treated cells (time 0) were exposed to various HD concentrations and counted after 24 h. […]

The next data set deals with kidney, A498. The data set can be described thus: Human cancer cell line A498 proliferation. It counts as cell-based.

Molecules are shown by their SMILES. In brackets after ≈: the same amount, converted by molar mass.

protein kinase C ζ, sequence (Q05513 whole entry): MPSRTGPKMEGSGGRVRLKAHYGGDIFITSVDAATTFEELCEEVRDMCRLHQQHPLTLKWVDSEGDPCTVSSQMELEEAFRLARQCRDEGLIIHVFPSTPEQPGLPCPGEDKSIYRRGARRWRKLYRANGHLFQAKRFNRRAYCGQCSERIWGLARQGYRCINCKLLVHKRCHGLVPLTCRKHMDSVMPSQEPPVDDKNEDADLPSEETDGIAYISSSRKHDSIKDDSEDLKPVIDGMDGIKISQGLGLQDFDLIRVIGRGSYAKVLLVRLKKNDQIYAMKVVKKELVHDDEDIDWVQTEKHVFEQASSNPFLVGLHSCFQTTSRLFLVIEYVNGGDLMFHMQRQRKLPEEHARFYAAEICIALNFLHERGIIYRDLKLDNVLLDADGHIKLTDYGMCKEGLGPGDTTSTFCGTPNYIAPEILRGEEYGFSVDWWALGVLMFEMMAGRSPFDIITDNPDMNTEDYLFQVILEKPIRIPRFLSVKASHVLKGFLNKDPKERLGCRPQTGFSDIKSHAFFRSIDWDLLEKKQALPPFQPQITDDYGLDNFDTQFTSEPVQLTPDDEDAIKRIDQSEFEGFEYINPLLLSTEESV
protein kinase C δ, sequence (Q05655 whole entry): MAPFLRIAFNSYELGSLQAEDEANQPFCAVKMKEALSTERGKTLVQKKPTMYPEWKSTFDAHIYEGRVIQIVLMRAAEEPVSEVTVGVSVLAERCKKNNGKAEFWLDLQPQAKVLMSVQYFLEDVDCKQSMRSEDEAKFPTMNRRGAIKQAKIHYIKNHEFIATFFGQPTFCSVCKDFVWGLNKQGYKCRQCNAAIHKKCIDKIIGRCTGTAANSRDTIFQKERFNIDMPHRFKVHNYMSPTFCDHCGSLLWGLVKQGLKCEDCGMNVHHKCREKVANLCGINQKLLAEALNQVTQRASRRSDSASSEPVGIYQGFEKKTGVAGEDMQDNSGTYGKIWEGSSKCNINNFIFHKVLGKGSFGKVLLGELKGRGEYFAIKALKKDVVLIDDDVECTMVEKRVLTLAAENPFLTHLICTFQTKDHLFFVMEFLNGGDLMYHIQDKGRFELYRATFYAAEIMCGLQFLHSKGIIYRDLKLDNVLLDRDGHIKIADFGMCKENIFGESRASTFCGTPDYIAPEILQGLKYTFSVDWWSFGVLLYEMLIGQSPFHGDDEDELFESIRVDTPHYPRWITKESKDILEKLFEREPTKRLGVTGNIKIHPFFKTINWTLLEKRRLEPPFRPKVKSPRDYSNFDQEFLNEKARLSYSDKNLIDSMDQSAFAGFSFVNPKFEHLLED
CDK5/p35, sequence (Q03114 whole entry): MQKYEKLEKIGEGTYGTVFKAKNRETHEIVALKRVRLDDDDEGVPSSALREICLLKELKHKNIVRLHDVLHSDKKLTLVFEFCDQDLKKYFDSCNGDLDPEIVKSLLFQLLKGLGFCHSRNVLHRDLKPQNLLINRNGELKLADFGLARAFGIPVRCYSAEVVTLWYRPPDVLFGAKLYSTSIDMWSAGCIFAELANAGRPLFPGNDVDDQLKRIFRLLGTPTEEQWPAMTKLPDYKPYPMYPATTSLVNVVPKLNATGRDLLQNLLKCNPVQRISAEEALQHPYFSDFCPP
CDK5/p35, sequence (P61810 2-307 partner limits assumed): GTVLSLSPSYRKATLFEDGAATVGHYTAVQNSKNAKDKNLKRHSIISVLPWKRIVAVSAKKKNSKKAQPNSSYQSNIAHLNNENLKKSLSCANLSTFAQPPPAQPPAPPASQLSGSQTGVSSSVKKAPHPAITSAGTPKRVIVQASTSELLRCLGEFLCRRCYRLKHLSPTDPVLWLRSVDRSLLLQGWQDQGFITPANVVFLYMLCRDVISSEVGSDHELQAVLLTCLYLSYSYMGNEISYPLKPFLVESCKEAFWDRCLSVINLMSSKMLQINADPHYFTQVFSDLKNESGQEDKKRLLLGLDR
ASK-γ (plant GSK-3), sequence (P43289 whole entry): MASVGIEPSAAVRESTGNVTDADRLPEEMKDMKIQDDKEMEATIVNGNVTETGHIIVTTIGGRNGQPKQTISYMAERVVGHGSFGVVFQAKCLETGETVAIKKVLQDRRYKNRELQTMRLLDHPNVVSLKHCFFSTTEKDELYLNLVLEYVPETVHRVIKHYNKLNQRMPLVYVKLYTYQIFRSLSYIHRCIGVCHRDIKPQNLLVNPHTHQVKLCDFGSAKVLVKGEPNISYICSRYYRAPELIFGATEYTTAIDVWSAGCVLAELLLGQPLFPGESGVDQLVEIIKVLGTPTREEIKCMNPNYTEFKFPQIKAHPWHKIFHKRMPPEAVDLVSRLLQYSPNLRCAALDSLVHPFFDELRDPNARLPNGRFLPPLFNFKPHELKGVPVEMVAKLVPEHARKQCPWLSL
c-abl tyrosine kinase, sequence (P00521 whole entry): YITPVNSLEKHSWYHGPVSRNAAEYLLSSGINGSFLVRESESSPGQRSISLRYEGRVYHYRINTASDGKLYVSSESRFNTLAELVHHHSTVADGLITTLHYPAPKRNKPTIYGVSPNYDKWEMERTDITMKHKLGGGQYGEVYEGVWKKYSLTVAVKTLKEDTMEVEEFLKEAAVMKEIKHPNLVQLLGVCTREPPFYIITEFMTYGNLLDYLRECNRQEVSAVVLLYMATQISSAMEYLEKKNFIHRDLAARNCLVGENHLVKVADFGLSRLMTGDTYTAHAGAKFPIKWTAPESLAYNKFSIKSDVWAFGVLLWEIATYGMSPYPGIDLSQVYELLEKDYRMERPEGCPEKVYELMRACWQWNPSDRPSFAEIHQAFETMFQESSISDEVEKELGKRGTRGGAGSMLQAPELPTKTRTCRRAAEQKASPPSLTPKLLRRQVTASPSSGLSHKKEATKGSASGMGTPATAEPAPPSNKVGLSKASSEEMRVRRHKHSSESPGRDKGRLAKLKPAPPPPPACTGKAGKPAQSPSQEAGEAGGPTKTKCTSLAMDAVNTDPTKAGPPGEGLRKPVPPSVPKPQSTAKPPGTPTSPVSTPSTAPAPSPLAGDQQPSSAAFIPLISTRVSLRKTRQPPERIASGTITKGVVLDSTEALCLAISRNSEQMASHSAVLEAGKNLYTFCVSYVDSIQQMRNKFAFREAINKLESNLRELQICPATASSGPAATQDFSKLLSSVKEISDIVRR
Experimental for CDK5/p35: CDK5/p35 was immunoprecipitaed from P02 rat cortices using the C-terminal Santa Cruz antibody (400 μg total protein per kinase assay). The immunoprecipitate was split into equal aliquots and the kinase assays performed using GST-Pak1 K299 as a substrate. […] Phosphorylation was monitored by autoradiography.

For the molecule `NC1=NC(=O)C(=C2CCNC(=O)c3[nH]c(Br)cc32)N1` [hymenialdisine, 4-(2-amino-4-oxo-2-imidazolin-5-ylidene)-2-bromo-4,5,6,7-tetrahydropyrrolo (2,3-c) azepine-8-one], the IC50 is 1.1 µM at protein kinase C δ; 60 µM against protein kinase C ζ; 42 µg/mL (≈ 130 µM) with lung, H460; 0.01 to 0.1 µM at CDK5/p35; 4 µM against c-abl tyrosine kinase; 15.1 µM in [2]. For the same molecule, the IC50 in the data set with melanoma, SK-MEL-5 was found to be 5.7 µg/mL (≈ 17.6 µM); on ASK-γ (plant GSK-3), 0.08 µM; with HT29-18-C1 cells [3] (Homo sapiens, serum-treated cells counted after 24 h), 5 µM; with kidney, A498, 24.7 µg/mL (≈ 76.2 µM). For the same molecule, the figures for the “viability (trypan blue)” value in the data set on HT29-18-C1 cells [1] (10 μM HD at 24 h) and with HT29-18-C1 cells [1] (80 μM HD at 24 h) were more than 95% and 90%, respectively. The “growth of HT29-18-C1 (cell number)” value in the data set with HT29-18-C1 cells [3] (10 μM for 24 h, followed over 72 h) is listed as “strong growth inhibition”.

(Values after patent publication US7098204B2 (C.N.R.S., priority 1999, dated 2006).)
